The values below come from ChEMBL document CHEMBL1137559, “Rational design of 5'-thiourea-substituted alpha-thymidine analogues as thymidine monophosphate kinase inhibitors capable of inhibiting mycobacterial growth” (J Med Chem, 2007).

Calls of active or inactive are those of the source. The calls are words filed in the database; no cut-off is given here.

For test [1], the species on record is Homo sapiens. Nature of the test: Inhibition of human TMPK expressed in Escherichia coli by spectrophotometric assay.
Test [2] is filed under the species Homo sapiens. Briefly: Inhibition of human TMPK expressed in Escherichia coli at 1 mM by spectrophotometric assay.

Take `Cc1cn([C@H]2C[C@H](O)[C@@H](COP(=O)(O)O)O2)c(=O)[nH]c1=O`: the Km (usually the concentration of substrate that gives half-maximal velocity) in the test listed under Homo sapiens [1] amounted to 5 µM.

Regarding `Cc1cn([C@@H]2C[C@@H](CNC(=O)NC[C@H]3C[C@H](n4cc(C)c(=O)[nH]c4=O)O[C@@H]3CO)[C@H](CO)O2)c(=O)[nH]c1=O`, in the test filed under Homo sapiens [2], the result was inactive.
